Reference: US20230406803A1, “TROPOLONE DERIVATIVES AND TAUTOMERS THEREOF FOR IRON REGULATION IN ANIMALS” (Kinesid Therapeutics, Inc, priority 2020, published 2023)
Marks after values point to notes of the source that are not given here.

Legend:
[1] = Mouse liver microsomal stability assay; format: in vitro ADME; conditions: mouse, microsomes
From the text: (§1) Further examples of useful assays include metabolic stability assays, such as but not limited to e.g., liver microsomal clearance assays which provide measurement such as, but not limited to e.g., liver microsomal clearance half-life (t1/2), liver microsomal intrinsic clearance (CLint), and the like. Such measurements are useful in assessing various characteristics of a subject compound, such as e.g., the availability of an intact compound to provide a pharmacological effect. A compound having a longer microsomal clearance half-life (t1/2), e.g., than a reference compound, will provide better exposure of the intact compound and greater availability to produce the relevant pharmacological effect. A compound having a less microsomal clearance, e.g., as measured by liver microsomal intrinsic clearance (CLint), will similarly result in greater exposure of the intact compound available for an increase in the relevant pharmacological effect, e.g., as compared to that of a reference compound with a higher liver microsomal intrinsic clearance (CLint). Other useful assays include in vitro hepatocyte metabolic stability assays.
(§2) Such assessments included human and mouse liver microsomal stability assays as well as 6-hour mouse PK studies.

[2] = Human liver microsomal stability assay; format: in vitro ADME; conditions: human, microsomes
From the text: as §1, §2

Mouse 6-hour PK study = conditions: mouse, in vivo
From the text: Useful such assays include, but are not limited to e.g., those measurements made in PK studies, such as rodent and non-human primate PK studies, including e.g., mouse (such as mouse 6-hour PK studies), rat PK studies, cynomolgus or rhesus PK studies, or the like. Useful measurements obtained in such PK studies include but are not limited to e.g., maximum concentration (Cmax) reflecting the “peak” of a drug observed after its administration that can reflect not only the rate but also the extent of absorption, area under the curve (AUC) representing the area under the plot of tissue (e.g., plasma) concentration against time after drug administration which is of particular use in estimating bioavailability of drugs and drug total clearance, half-life (t1/2) or the period of time required for the concentration or amount of drug to be reduced to exactly one-half of a given concentration or amount that indicates the persistence of the drug in its volume of distribution, and the like.
as §2

[3] = tested on: DMT1-deficient Caco-2 cells; assay: shDMT1-Caco2 55Fe transport assay; format: cell-based; conditions: Caco-2
From the text: Assay 2: shDMT1-Caco2 ^55Fe Transport Assay to Assess Ligand Ability in Transporting Fe (III)
Cells: DMT1-deficient Caco-2 cells (alias: “shDMT1,” or “4A” cells) were from Grillo et al. Science, 2017, and were cryopreserved in liquid nitrogen prior to use.
Reagents and supplies: ^55FeCl3 was obtained from PerkinElmer (Boston, MA). Iron(III) chloride (FeCl3) hexahydrate was obtained from Sigma. Dulbecco's Modified Eagle Medium (DMEM), fetal bovine serum (FBS), L-glutamine, MEM nonessential amino acids, penicillin-streptomycin, G418, formic acid, methanol, high-purity water, ammonium formate, dimethyl sulfoxide (DMSO) were purchased from Fisher Scientific. Propranolol, atenolol and carbutamide were obtained from Sigma-Aldrich Chemical Company (St Louis, MO). Scintillation cocktail was obtained from Research Product International Co. (Mount Prospect, IL). Stericup filter system (PES membrane, 0.22 um pore size) was purchased from Fisher Scientific. Corning item #3378 24-well transwell insert plates.
Test articles: known compounds hinokitiol and deferiprone were purchased from Sigma. They are tested side by side with the small molecule ligands disclosed in this application. DMSO stocks (10 mM, which is 1,000× of the 10 μM dose level) of hinokitiol or test articles were prepared. A stock solution of 25 mM deferiprone in DMSO was prepared. The DMSO stock solutions were stored at −20° C. or below when not in use.
The growth medium was prepared according to the following table
Apical media (serum free DMEM, 10 mM MES, pH 6.5) was prepared. Apical master mix media was prepared fresh with the addition of 200 nM ^55Fe before each experiment. For the negative control propranolol and atenolol wells, 200 nM of non-radioactive iron was used.
The basolateral media was serum-free DMEM, 10 mM HEPES, 2% bovine serum albumin (BSA), pH 7.4.
For each experiment, cells were seeded into the 24-well transwell plates (0.5 mL of 50,000 cells/mL) with growth media. The basolateral companion plate was loaded with 1 mL of growth media. After 12-24 hr, both the apical and basolateral chamber were replaced with growth media. The apical media was changed 3× per week for 21-28 days, including a media change exactly 48 hr before the assay date.
On the assay day, the TEER values were measured and the average TEER value was obtained. Individual wells with TEER value >35% lower than the average of all wells were excluded. For the qualified wells, the apical layer (twice) and basolaterial (once) chambers were washed with PBS. The basolateral companion plate was then filled with 1 mL of basolateral media. Via addition down the side-wall of the apical well, 300 μL per well of the apical assay master mix, with the indicated dose level of test article, was added. Each dose was tested in triplicate. The plates were incubated (5% CO2 and 90% humidity at 37° C.) for the indicated timepoints. At each indicated timepoint, the basolateral supernatant was gently mixed via pipetting, and 200 μL of the basolateral supernatant was transferred to scintillation vials. To each scintillation counting vial, 5 mL of scintillation cocktail fluid was added. For each scintillation vial, the radioactivity (CPM) was determined with liquid scintillation counter LS6500. The counting time per vial was 5 min.
All raw CPM values are divided by the average value of blank DMSO solution to give a fold of change above the DMSO value. The mean and standard deviation of each compound at each concentration level and at each time point measured was calculated to give the fold change (fc) value. For rank order compounds, the fc value of a ligand at 4 h time point is further divided by the fold change (fc) value of hinokitiol (a positive control compound) at an equimolar concentration to arrive at the FC (normalized fold of change) value. Data reported in Tables 1 and 2 is 4 hr time point FC=fc-ligand @ 3 uM/fc-hino @ 3 μM, and FC hino=1.

[4] = Ligand facilitated Fe(III) efflux from liposomes; format: biochemical; design: unit not given here; conditions: efflux rate k at 10 μM ligand concentration; ferrozine absorbance 562 nm, 120 min kinetic read
In short: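 POPC/cholesterol liposomes loaded with Fe(III) citrate in MES/Tris pH 7.0, diluted to 1 mM phosphorus in ascorbate buffer with 1 mM ferrozine outside. Ligand at 1.25–40 µM; absorbance at 562 nm read every 60 s for 120 min. Efflux rate k fitted by single-phase association, averaged over triplicates, compared at 10 µM.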

For O=c1c(F)cccc(C2CCOCC2)c1O [Ex. 36, 7-fluoro-2-hydroxy-3-(tetrahydro-2H-pyran-4-yl)cyclohepta-2,4,6-trien-1-one], the “clearance half-life (t1/2) and intrinsic clearance (CLint) as compared to hinokitiol” value (from here on “clearance half-life … compared to hinokitiol”) [1] was “longer clearance half-life (t1/2) and lower intrinsic clearance (CLint), or both as compared to hinokitiol”, the half-life [1] was over 2.5 h and the microsomal CLint [1] was under 25 µL/min/mg. The “Human CLint” value [2] was 0.00* μL/min/mg protein, the “Human t1/2” value [2] was “∞*” and the “clearance half-life … compared to hinokitiol” value [2] was “longer clearance half-life (t1/2) and lower intrinsic clearance (CLint), or both as compared to hinokitiol”. The AUC(0-t) (Mouse 6-hour PK study) was over 20000 ng·h/mL, the Cmax (Mouse 6-hour PK study) was over 20000 ng/mL and the half-life (Mouse 6-hour PK study) was 1.25 to 4.99 h. For the same compound, the “mouse 6-hour PK properties as compared to hinokitiol” value (Mouse 6-hour PK study) was “one or more improved mouse 6-hour PK properties as compared to hinokitiol”.

For CC(C)c1cccc(=O)c(O)c1F [Ex. 2, 3-fluoro-2-hydroxy-4-isopropylcyclohepta-2,4,6-trien-1-one], the “clearance half-life … compared to hinokitiol” value [1] was “longer clearance half-life (t1/2) and lower intrinsic clearance (CLint), or both as compared to hinokitiol”, the half-life [1] was over 2.5 h and the microsomal CLint [1] was under 25 µL/min/mg. For the same compound, the “clearance half-life … compared to hinokitiol” value [2] was “longer clearance half-life (t1/2) and lower intrinsic clearance (CLint), or both as compared to hinokitiol”, the half-life [2] was over 2.5 h and the microsomal CLint [2] was under 25 µL/min/mg. For the same compound, the AUC(0-t) (Mouse 6-hour PK study) was 5000 to 20000 ng·h/mL, the Cmax (Mouse 6-hour PK study) was 5000 to 20000 ng/mL and the half-life (Mouse 6-hour PK study) was 1.25 to 4.99 h. For the same compound, the “mouse 6-hour PK properties as compared to hinokitiol” value (Mouse 6-hour PK study) was “one or more improved mouse 6-hour PK properties as compared to hinokitiol”.

For O=c1ccccc([C@H]2CCCO2)c1O (single isomer, unassigned) [Ex. 41], the “clearance half-life … compared to hinokitiol” value [1] was “longer clearance half-life (t1/2) and lower intrinsic clearance (CLint), or both as compared to hinokitiol”, the half-life [1] was 0.417 to 0.833 h and the microsomal CLint [1] was 25 to 50 µL/min/mg. The “clearance half-life … compared to hinokitiol” value [2] was “longer clearance half-life (t1/2) and lower intrinsic clearance (CLint), or both as compared to hinokitiol”, the half-life [2] was 0.417 to 0.833 h and the microsomal CLint [2] was 25 to 50 µL/min/mg. The AUC(0-t) (Mouse 6-hour PK study) was 500 to 1500 ng·h/mL, the Cmax (Mouse 6-hour PK study) was 1500 to 5000 ng/mL and the half-life (Mouse 6-hour PK study) was under 1.25 h. For the same compound, the “mouse 6-hour PK properties as compared to hinokitiol” value (Mouse 6-hour PK study) was “one or more improved mouse 6-hour PK properties as compared to hinokitiol”.

With Cc1ccc(F)c(=O)c([O-])c1.[Na+] the “Caco2 shDMT1 transport FC @ 3 μM, 4 h” value [3] was 0.01-0.5 and the “Liposome Fe transport kefflux at 10 μM” value [4] was 0.1-5.

In the case of O=c1ccc(OC2COC2)ccc1O [Ex. 12, 2-hydroxy-5-(oxetan-3-yloxy)cyclohepta-2,4,6-trien-1-one], the “Mouse CLint” value [1] is reported as 0.00* μL/min/mg protein, the “Mouse t1/2” value [1] is reported as “∞*” and the “clearance half-life … compared to hinokitiol” value [1] is reported as “longer clearance half-life (t1/2) and lower intrinsic clearance (CLint), or both as compared to hinokitiol”. The “Human CLint” value [2] was 0.00* μL/min/mg protein, the “Human t1/2” value [2] was “∞*” and the “clearance half-life … compared to hinokitiol” value [2] was “longer clearance half-life (t1/2) and lower intrinsic clearance (CLint), or both as compared to hinokitiol”. For the same compound, the AUC(0-t) (Mouse 6-hour PK study) was under 499 ng·h/mL, the Cmax (Mouse 6-hour PK study) was 500 to 1500 ng/mL and the half-life (Mouse 6-hour PK study) was 1.25 to 4.99 h. The “mouse 6-hour PK properties as compared to hinokitiol” value (Mouse 6-hour PK study) was “one or more improved mouse 6-hour PK properties as compared to hinokitiol”.

With O=c1ccc(C2CCOCC2)ccc1O the “Caco2 shDMT1 transport FC @ 3 μM, 4 h” value [3] was 0.01-0.5 and the “Liposome Fe transport kefflux at 10 μM” value [4] was 0.1-5.

For COc1cccc(=O)c(O)c1, the “Caco2 shDMT1 transport FC @ 3 μM, 4 h” value [3] was 0.01-0.5 and the “Liposome Fe transport kefflux at 10 μM” value [4] was 5-7.5.

In the case of O=c1ccc(C2CC3CC3C2)ccc1O (stereo not shown), the “Caco2 shDMT1 transport FC @ 3 μM, 4 h” value [3] is reported as 0.01-0.5 and the “Liposome Fe transport kefflux at 10 μM” value [4] is reported as 5-7.5.

With Cc1c(O)c(=O)ccn1C [deferiprone, reference compound] the “Caco2 shDMT1 transport FC @ 3 μM, 4 h” value [3] was 0.02-0.03 and the “Liposome Fe transport kefflux at 10 μM” value [4] was 0.

For O=c1cccc(O[C@@H]2CCOC2)cc1O (stereo in doubt), the “Caco2 shDMT1 transport FC @ 3 μM, 4 h” value [3] was 0.01-0.5 and the “Liposome Fe transport kefflux at 10 μM” value [4] was 0.1-5.

With Cc1cc(C2CC2)ccc(O)c1=O the “Caco2 shDMT1 transport FC @ 3 μM, 4 h” value [3] was 1-5 and the “Liposome Fe transport kefflux at 10 μM” value [4] was 0.1-5.

In the case of Cc1ccc(O)c(=O)c(C(F)(F)F)c1, the “Caco2 shDMT1 transport FC @ 3 μM, 4 h” value [3] is reported as 0.01-0.5 and the “Liposome Fe transport kefflux at 10 μM” value [4] is reported as 10-25.

In the case of O=c1c(F)cccc(C2CCCO2)c1O (stereo not shown), the “Caco2 shDMT1 transport FC @ 3 μM, 4 h” value [3] is reported as 0.01-0.5 and the “Liposome Fe transport kefflux at 10 μM” value [4] is reported as 5-7.5.

In the case of O=c1ccc(OC2COC2)ccc1O [drawing 187], the “Caco2 shDMT1 transport FC @ 3 μM, 4 h” value [3] is reported as 0.01-0.5 and the “Liposome Fe transport kefflux at 10 μM” value [4] is reported as 5-7.5.

For O=c1ccccc(C2CCCO2)c1S (stereo not shown), the “Caco2 shDMT1 transport FC @ 3 μM, 4 h” value [3] was 0.01-0.5 and the “Liposome Fe transport kefflux at 10 μM” value [4] was 7.5-10.

In the case of O=c1ccccc(OC2CC(F)(F)C2)c1O, the “Caco2 shDMT1 transport FC @ 3 μM, 4 h” value [3] is reported as 1-5 and the “Liposome Fe transport kefflux at 10 μM” value [4] is reported as 7.5-10.

With Cc1ccc(O)c(=O)c(C)c1 the “Caco2 shDMT1 transport FC @ 3 μM, 4 h” value [3] was 1-5 and the “Liposome Fe transport kefflux at 10 μM” value [4] was 5-7.5.

In the case of CCOc1ccc(O)c(=O)cc1, the “Caco2 shDMT1 transport FC @ 3 μM, 4 h” value [3] is reported as 0.01-0.5 and the “Liposome Fe transport kefflux at 10 μM” value [4] is reported as 7.5-10.

In the case of CC(C)c1ccc(F)c(=O)c(O)c1 [drawing 176], the “Caco2 shDMT1 transport FC @ 3 μM, 4 h” value [3] is reported as 0.01-0.5 and the “Liposome Fe transport kefflux at 10 μM” value [4] is reported as 10-25.
